# Data as given in publication PMC4454744 (Analytical biochemistry, 2015).
# Where two headings read alike, the source gives them in different places.
# Legend:
# [1] = system: hepatitis C virus NS3 protease; conditions: jump dilution; cited from earlier work
# saFabI = experiment: Progress curve analysis, saFabI; type: biochemical, Staphylococcus aureus; conditions: for residence time tR: progress curve analysis, saFabI system, 20 °C
# [2] = biological target: T1, R40Q/K41N/S44L saFabI variant (Staphylococcus aureus, UniProt Q6GI75, K41N/R40Q/S44L); experiment: [32P]-NAD+ direct dissociation method, saFabI; type: binding; conditions: saFabI system
# T1 sequence (Q6GI75 1-256 R40Q/K41N/S44L): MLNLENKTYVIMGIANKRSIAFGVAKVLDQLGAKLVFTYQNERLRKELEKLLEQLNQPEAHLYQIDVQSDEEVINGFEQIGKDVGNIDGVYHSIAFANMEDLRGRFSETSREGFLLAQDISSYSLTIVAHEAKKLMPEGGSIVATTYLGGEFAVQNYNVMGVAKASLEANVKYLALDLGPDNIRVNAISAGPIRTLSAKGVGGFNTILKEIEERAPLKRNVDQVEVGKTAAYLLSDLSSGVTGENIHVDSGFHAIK
# [3] = biological target: T2, M. tuberculosis FabI (InhA) (Mycobacterium tuberculosis, UniProt P9WGR1); conditions: progress curve analysis; bound to InhA; 20 °C
# [4] = biological target: T2, M. tuberculosis FabI (InhA)
SMILES,residence time tR (saFabI),residence time tR [2],other results
CC(C)(C)OC(=O)N[C@H]1CCCCC/C=C\[C@@H]2C[C@@]2(C(=O)NS(=O)(=O)C2CC2)NC(=O)[C@@H]2C[C@@H](OC(=O)N3Cc4cccc(F)c4C3)CN2C1=O [ITMN-191],–,–,recovery of enzyme activity [1]: partial recovery of enzyme activity
CCCCCCc1ccc(Oc2ccccc2)c(O)c1 [PT04],97 min,461.5 min,–
CCCCCCc1ccc(Oc2ccccc2Cl)c(O)c1 [PT91],–,–,residence time tR [3]: 102.1 ± 11.4 min; residence time tR [4]: 148.4 ± 13.4 min
CCCCCCc1ccc(Oc2ccccc2C#N)c(O)c1 [PT119],120.3 min,833.3 min,"difference in koff (saFabI; progress curve analysis vs direct dissociation method, inhibition of saFabI): 8 fold"
